In ChEMBL document CHEMBL3886411, “Heterocyclic derivative and pharmaceutical composition comprising the same” (2015):

molecular target: T1, P2X purinoceptor 3 (Homo sapiens, UniProt P56373); assay: Inhibition Assay: Stably expressing cell line (C6BU-1 cell transfected with human P2X3 receptor gene (GenBank accession number Y07683) was used. The cells were seeded in a 96-well microtiter plate at a concentration of 8000 cells/well and cultured in the medium (8.3% fetal bovine serum, 8.3% horse serum, 1% antibiotic and antifungal in DMEM) for one day at 37° C. under 5% carbon dioxide atmosphere. The medium was replaced with 4 μM Fluo-3-AM solution (20 mM HEPES, 137 mM NaCl, 2.7 mM KCl, 0.9 in M MgCl2, 5.0 mM CaCl2, 5.6 D-glucose, 2.5 mM probenecid, 1.0% BSA, and 0.08% Pluronic F-127, pH 7.5) and incubated at 37° C. under 5% dioxide carbon atmosphere for one hour. The plate was washed with washing buffer (20 mM HEPES, 137 mM NaCl, 2.7 mM KCl, 0.9 mM MgCl2, 5.0 mM CaCl2, 5.6 mM D-glucose, 2.5 mM probenecid, pH 7.5), and each well was added with 40 μL of this buffer. The plate was placed in High-Throughput Screening System FDSS 3000 (Hamamatsu Photonics K.K.). Measurement of fluorescence inte
T1 sequence (P56373 whole entry): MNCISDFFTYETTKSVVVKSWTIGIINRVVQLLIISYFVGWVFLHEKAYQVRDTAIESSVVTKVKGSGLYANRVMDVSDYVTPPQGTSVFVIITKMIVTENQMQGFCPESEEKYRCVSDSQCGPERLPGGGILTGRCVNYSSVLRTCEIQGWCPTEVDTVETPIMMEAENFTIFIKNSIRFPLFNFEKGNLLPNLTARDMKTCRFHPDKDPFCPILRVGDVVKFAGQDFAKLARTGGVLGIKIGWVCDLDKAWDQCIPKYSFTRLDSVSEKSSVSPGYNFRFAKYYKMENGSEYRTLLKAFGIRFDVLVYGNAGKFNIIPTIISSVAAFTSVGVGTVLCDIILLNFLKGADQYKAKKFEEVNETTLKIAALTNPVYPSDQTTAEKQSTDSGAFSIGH

| Structure (SMILES) | IC50 [nM] |
| --- | --- |
| CCOC(=O)Nc1cnc(Nc2ccc(OC(C)C)c(F)c2)n(Cc2ccc(Cl)cc2)c1=O | 33 |
| CCOC(=O)c1cnc(Nc2ccc(OC(C)C)c(F)c2)n(Cc2ccc(Cl)cc2)c1=O | 71 |
| CCOC(=O)c1cn(Cc2ccc(Cl)cc2)c(Nc2ccc(OC(C)C)c(F)c2)nc1=O | 108 |
